Data set [1] deals with male Swiss albino mice (CD-1). The experiment in a line: Subcutaneous pentylenetetrazole seizure test (scPTZ). Type of data set: in vivo. To be noted: screening, 100 mg/kg i.p., 0.5 h, mice; for responders at 100 mg/kg: Mus musculus, ip, read-out: scPTZ: number of mice protected/number of mice tested (converted). How it is done:
(§1) The male Swiss albino mice (CD-1) weighing 18-26 g were used. All procedures were carried out in accordance with applicable Polish and international guidelines on the ethics of animal testing, after obtaining appropriate institutional approval. The substances were administered intraperitoneally (i.p.), in 1% aqueous solution of Tween, as single injections with a volume of 10 ml/kg, 30 minutes before the given test. Screening was performed on groups consisted of 4 mice. The average effective dose (ED50) in given test and toxic dose in the rotarod test (TD50) was estimated based on the results obtained in 3-4 groups of animals consisting of 6 mice. All tests were carried out based on the procedures described in the specialist literature.
In the scPTZ test, seizures were induced by subcutaneous administration of pentylenetetrazole (PTZ) at a dose of 100 mg/kg. This caused clonic seizures with accompanying loss of the righting reflex. Test compounds were administered 30 minutes before the experiment. After PTZ administration, the animals were placed individually in transparent containers and observed for a period of 30 minutes for the occurrence of clonic seizures. During this time, the latency of the first onset of clonic seizures, defined as clonus of the whole body lasting at least 3 seconds with loss of the righting reflex and the number of seizure episodes during the test were noted and compared with control group. The absence of clonic convulsions within the observed time period was interpreted as the compound's ability to protect against PTZ-induced seizures (Ferreri, G.; Chimirri, A.; Russo, E.; Gitto, R.; Gareri, P.; De Sarro, A.; De Sarro, G. Pharmacol. Biochem. Behav. 2004, 77, 85-94; Łączkowski, K.; Sałat, K.; Misiura, K.; Podkowa, A.; Malikowska, N. J. Enzyme Inhib. Med. Chem. 2016, 31, 1576-82).
(§2) To perform a statistical evaluation of the results, one-way ANOVA variance analysis and Dunnett's post hoc test (multiple comparison test) were used. The value at the significance level p<0.05 was considered statistically significant.

Data set [2] has as its system male Swiss albino mice (CD-1). Nature of the data set: Maximal electroshock seizure test (MES). Type of data set: in vivo. To be noted: screening, 100 mg/kg i.p., 0.5 h, mice; for responders at 100 mg/kg: Mus musculus, ip, read-out: MES: number of mice protected/number of mice tested (converted). How it is done: as §1
In the MES test, the seizures were induced by an electrical stimulus lasting of 0.2 s duration, 500 V voltage and 25 mA intensity. The electrical stimuli was generated using an electric shock generator (Rodent shocker, Type 221, Hugo Sachs Elektronik, Germany) and delivered to the animal using electrodes placed on the auricles. The study was conducted 30 minutes after intraperitoneal administration of the compounds at various doses. During the experiment, the number of animals that experienced a seizure episode in the form of tonic extension of the hind limbs was counted (Kamiński, K.; Rapacz, A.; Łuszczki, J. J.; Latacz, G.; Obniska, J.; Kieć-Kononowicz, K.; Filipek, B. Bioorg. Med. Chem. 2015, 23, 2548-2561; Castel-Branco, M. M.; Alves, G. L.; Figueiredo, I. V.; Falcão, A. C.; Caramona, M. M. Methods Find. Exp. Clin. Pharmacol. 2009, 31, 101-106).
as §2

Data set [3] deals with male Swiss albino mice (CD-1). Nature of the data set: Psychomotor seizure test 6 Hz (32 mA). Type of data set: in vivo. To be noted: screening, 100 mg/kg i.p., 0.5 h, mice; for responders at 100 mg/kg: Mus musculus, ip, read-out: 6 Hz (32 mA): number of mice protected/number of mice tested (converted). How it is done: as §1
In the 6 Hz test, seizures were induced by an electric stimulus of 32 mA and/or 44 mA and a frequency of 6 pulses per second. An electrical pulse was generated using an electric shock generator (ECT Unit 57800; Ugo Basile, Gemonio, Italy) and delivered to the animal using ocular electrodes. Before starting the test, the eye surface was gently moistened with a solution of local anesthetic (1% lidocaine solution). The study was conducted 30 minutes after intraperitoneal administration of the compounds at various doses. An electrical pulse was delivered continuously for a period of 3 seconds, followed by observation of the animal for a period of 10 seconds. During this time, immobility or stun associated with rearing, forelimb clonus, twitching of the vibrissae and Straub's tail were observed. These symptoms persist throughout the observation period, indicating the occurrence of psychomotor seizures in mice. Mice resuming normal behavior within 10 s after stimulation were considered as protected (Barton, M. E.; Klein, B. D.; Wolf, H. H.; White, H. S. Epilepsy Res. 2001, 47, 217-227; Wojda, E.; Wlaź, A.; Patsalos, P. N.; Łuszczki, J. J. Epilepsy Res. 2009, 86, 163-174).
as §2

The record followed here is patent publication US12139458B2, “(2,5-dioxopyrrolidin-1-yl)(phenyl)-acetamide derivatives and their use in the treatment of neurological diseases” (UNIWERSYTET JAGIELLONSKI, priority 2019, dated 2024).

Counter-ions that a name gives are not always drawn.

As to `O=C(C(Cc1ccccc1)N1C(=O)CCC1=O)N1CCN(c2cccc(C(F)(F)F)c2)CC1` (stereo not drawn) (as salt: salt) [Example 23, 1-(1-Oxo-3-phenyl-1-(4-(3-(trifluoromethyl)phenyl)piperazin-1-yl)propan-2-yl)pyrrolidine-2,5-dione], the melting point was 126.1 to 127.2 °C.

`O=C(C(c1ccccc1)N1C(=O)CCC1=O)N1CCN(c2ccc(C(F)(F)F)cc2)CC1` (racemic) [Compound 7, 1-(2-Oxo-1-phenyl-2-(4-(4-(trifluoromethyl)phenyl)piperazin-1-yl)ethyl)pyrrolidine-2,5-dione] returned a melting point of 173.2 to 174.3 °C. For the same compound, in data set [1], the “scPTZ: number of mice protected/number of mice tested” value is listed as “¾”. The “MES: number of mice protected/number of mice tested” value in data set [2] was “¾”. Further, in data set [3], the “6 Hz (32 mA): number of mice protected/number of mice tested” value is “¾”.

On to `O=C(C(c1ccccc1)N1C(=O)CCC1=O)N1CCN(c2cc(C(F)(F)F)cc(C(F)(F)F)c2)CC1` (racemic) [Compound 8, 1-(2-(4-(3,5-Bis(trifluoromethyl)phenyl)piperazin-1-yl)-2-oxo-1-phenylethyl)pyrrolidine-2,5-dione], for which the melting point lay in the range of 228.1 to 229.4 °C. In addition, the responders at 100 mg/kg in data set [1] was 100%. The responders at 100 mg/kg in data set [2] was 100%. Further, in data set [3], the “6 Hz (32 mA): number of mice protected/number of mice tested” value is given as “¾”.

Consider `O=C(C(c1ccccc1)N1C(=O)CCC1=O)N1CCN(c2ccc(OC(F)(F)F)cc2)CC1` (racemic) [Compound 11, 1-(2-Oxo-1-phenyl-2-(4-(4-(trifluoromethoxy)phenyl)piperazin-1-yl)ethyl)pyrrolidine-2,5-dione], for which the melting point was 102.3 to 103.5 °C. For the same compound, the responders at 100 mg/kg in data set [1] was 50%. Besides, the “MES: number of mice protected/number of mice tested” value in data set [2] was “¾”. Besides, in data set [3], the “6 Hz (32 mA): number of mice protected/number of mice tested” value is “¾”.

The compound `O=C(C(c1ccccc1)N1C(=O)CCC1=O)N1CCN(c2ccc3ccccc3c2)CC1` (racemic) [Compound 15, 1-(2-(4-(Naphth-2-yl)piperazin-1-yl)-2-oxo-1-phenylethyl)pyrrolidine-2,5-dione] gave a melting point of 197.1 to 198.5 °C. Also, the “scPTZ: number of mice protected/number of mice tested” value in data set [1] was “¾”. The responders at 100 mg/kg in data set [2] was 50%. For the same compound, in data set [3], the “6 Hz (32 mA): number of mice protected/number of mice tested” value is listed as “¾”.

Take `O=C(C(c1ccccc1)N1C(=O)CCC1=O)N1CCN(c2ccc3sccc3c2)CC1` (racemic) [Compound 16, 1-(2-(4-(Benzo[b]thiophen-5-yl)piperazin-1-yl)-2-oxo-1-phenylethyl)pyrrolidine-2,5-dione]: the melting point lay in the range of 164.1 to 165.3 °C. In addition, in data set [1], the “scPTZ: number of mice protected/number of mice tested” value is “¾”. Moreover, the “MES: number of mice protected/number of mice tested” value in data set [2] is given as “¾”. The “6 Hz (32 mA): number of mice protected/number of mice tested” value in data set [3] is given as “¾”.

With `O=C(C(c1ccccc1)N1C(=O)CCC1=O)N1CCC(c2cccc(Cl)c2)CC1` (racemic) [Compound 18, 1-(2-(4-(3-Chlorophenyl)piperidin-1-yl)-2-oxo-1-phenylethyl)pyrrolidine-2,5-dione], the melting point fell in the range of 111.8 to 113.4 °C. In addition, the “scPTZ: number of mice protected/number of mice tested” value in data set [1] is “¾”. In addition, in data set [2], the “MES: number of mice protected/number of mice tested” value is recorded as “¾”. Besides, the “6 Hz (32 mA): number of mice protected/number of mice tested” value in data set [3] is recorded as “¾”.

Regarding `O=C(C(c1ccccc1)N1C(=O)CCC1=O)N1CCC(c2cccc(OC(F)(F)F)c2)CC1` (racemic) [Compound 20, 1-(2-Oxo-1-phenyl-2-(4-(3-(trifluoromethoxy)phenyl)piperidin-1-yl)ethyl)pyrrolidine-2,5-dione], the melting point was 112.1 to 113.2 °C. Besides, the responders at 100 mg/kg in data set [1] is 50%. Besides, the responders at 100 mg/kg in data set [2] was 100%. Further, in data set [3], the “6 Hz (32 mA): number of mice protected/number of mice tested” value is reported as “¾”.

`O=C([C@@H](c1ccccc1)N1C(=O)CCC1=O)N1CCN(c2cc(Cl)cc(Cl)c2)CC1` [(R)-4, (R)-1-(2-(4-(3,5-dichlorophenyl)piperazin-1-yl)-2-oxo-1-phenylethyl)pyrrolidine-2,5-dione] came in with a melting point of 174.3 to 175.5 °C. In data set [1], the responders at 100 mg/kg was 50%. In data set [2], the responders at 100 mg/kg is 100%. Besides, the responders at 100 mg/kg in data set [3] was 100%.

Take `O=C([C@@H](c1ccccc1)N1C(=O)CCC1=O)N1CCN(c2cccc(SC(F)(F)F)c2)CC1` [(R)-12]: the “scPTZ: number of mice protected/number of mice tested” value in data set [1] is reported as “¼”. For the same compound, the “MES: number of mice protected/number of mice tested” value in data set [2] is given as 4/4. The “6 Hz (32 mA): number of mice protected/number of mice tested” value in data set [3] is listed as 4/4.

As to `O=C(C(c1ccccc1)N1C(=O)CCC1=O)N1CCN(c2ccc3oncc3c2)CC1` (stereo not drawn) [Compound 17, 1-(2-(4-(1,2-Benzoxazol-5-il)piperazin-1-yl)-2-oxo-1-phenylethyl)pyrrolidine-2,5-dione], the “scPTZ: number of mice protected/number of mice tested” value in data set [1] is on record as “¾”. In data set [2], the “MES: number of mice protected/number of mice tested” value was “¾”. For the same compound, in data set [3], the “6 Hz (32 mA): number of mice protected/number of mice tested” value is “¾”.

In the case of `O=C(C(Cc1ccccc1)N1C(=O)CCC1=O)N1CCN(c2ccccc2)CC1` (stereo not drawn) [Compound 21, 1-(1-Oxo-3-phenyl-1-(4-phenylpiperazin-1-yl)prop-2-yl)pyrrolidine-2,5-dione], the melting point was 121.7 to 123.2 °C.

As to `O=C(C(Cc1ccccc1)N1C(=O)CCC1=O)N1CCN(c2cccc(Cl)c2)CC1` (stereo not drawn) [Compound 22, 1-(1-(4-(3-Chlorophenyl)piperazin-1-yl)-1-oxo-3-phenylpropan-2-yl)pyrrolidine-2,5-dione], the melting point lay in the range of 114.3 to 116.2 °C.

Compound `O=C(C(Cc1ccccc1)N1C(=O)CCC1=O)N1CCN(c2cccc(-c3ccccc3)c2)CC1` (stereo not drawn) [Compound 24, 1-(1-(4-([1,1′-Biphenyl]-3-yl)piperazin-1-yl)-1-oxo-3-phenylpropan-2-yl)pyrrolidine-2,5-dione] showed a melting point of 119.1 to 120 °C.

Compound `O=C(C(Cc1ccccc1)N1C(=O)CCC1=O)N1CCN(c2cccc(OC(F)(F)F)c2)CC1` (stereo not drawn) [Compound 25, 1-(1-Oxo-3-phenyl-1-(4-(3-(trifluoromethoxy)phenyl)piperazin-1-yl)propan-2-yl)pyrrolidine-2,5-dione] came in with a melting point of 104.4 to 105.5 °C.

Compound `CNC1CC(=O)N(C(C(=O)N2CCN(c3cccc(C(F)(F)F)c3)CC2)c2ccccc2)C1=O.Cl` (stereo not drawn) [Compound 48, 3-(Methylamino)-1-(2-oxo-1-phenyl-2-(4-(3-(trifluoromethyl)phenyl)piperazin-1-yl)ethyl)pyrrolidine-2,5-dione hydrochloride] yielded a melting point of 161.2 to 163.4 °C. For the same compound, the “scPTZ: number of mice protected/number of mice tested” value in data set [1] was “¾”. Also, the responders at 100 mg/kg in data set [2] is 100%. For the same compound, the responders at 100 mg/kg in data set [3] is 100%.

The compound `CN(C)C1CC(=O)N(C(C(=O)N2CCN(c3cccc(C(F)(F)F)c3)CC2)c2ccccc2)C1=O.Cl` (stereo not drawn) [Compound 49, 3-(Dimethylamino)-1-(2-oxo-1-phenyl-2-(4-(3-(trifluoromethyl)phenyl)-piperazin-1-yl)ethyl)pyrrolidine-2,5-dione hydrochloride] came in with a melting point of 157.8 to 159.2 °C. Moreover, the “scPTZ: number of mice protected/number of mice tested” value in data set [1] was “¾”. Moreover, the responders at 100 mg/kg in data set [2] is 100%. The responders at 100 mg/kg in data set [3] was 100%.

As usually defined, the melting point is the temperature, or range, at which the solid turns liquid.
